In publication PMC3409642 (Pharmaceutical research, 2012):
Where two headings read alike, the source gives them in different places.

Assays:
UGT1A9 [1] = molecular target: T1, UGT1A9 (Homo sapiens, UniProt O60656); experiment: in vitro
T1 sequence (O60656 26-530): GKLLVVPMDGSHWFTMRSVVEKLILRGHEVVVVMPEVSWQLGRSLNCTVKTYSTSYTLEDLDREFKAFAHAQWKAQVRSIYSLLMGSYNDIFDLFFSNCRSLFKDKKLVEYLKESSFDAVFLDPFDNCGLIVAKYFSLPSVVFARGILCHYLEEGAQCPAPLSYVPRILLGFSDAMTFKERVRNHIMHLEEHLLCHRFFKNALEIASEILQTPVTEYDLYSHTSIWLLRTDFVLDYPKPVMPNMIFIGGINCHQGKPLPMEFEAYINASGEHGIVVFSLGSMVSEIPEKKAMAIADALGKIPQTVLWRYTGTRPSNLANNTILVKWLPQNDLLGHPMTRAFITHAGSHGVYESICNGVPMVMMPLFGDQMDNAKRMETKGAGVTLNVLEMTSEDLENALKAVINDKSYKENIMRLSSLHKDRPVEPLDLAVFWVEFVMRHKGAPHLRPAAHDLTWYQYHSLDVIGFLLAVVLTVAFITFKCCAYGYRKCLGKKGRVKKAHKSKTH

UGT1A9 [2] = molecular target: T1, UGT1A9; experiment: Kinetic profiling of glucuronidation by expressed human UGT1A9; settings: for Log (CLint) (Actual): log of experimental CLint (μl/mg/min); for Vmax: pH 7.4
UGT1A9 [3] = molecular target: T1, UGT1A9; settings: for Log (CLint) (Actual): recombinant enzyme
not read [4] = substrate: Oc1ccc(-c2ccccc2)cc1; experiment: not read; settings: pH 7.4; 37.0 °C
not read [5] = substrate: Cc1ccc2oc(=O)cc(O)c2c1; experiment: not read; settings: pH 7.4; 37.0 °C
not read [6] = substrate: CN(C)CCc1c[nH]c2cccc(O)c12; experiment: not read; settings: pH 7.4; 37.0 °C
not read [7] = substrate: COC(=O)c1ccc(O)cc1; experiment: not read; settings: pH 7.4; 37.0 °C
not read [8] = substrate: C=CCc1ccc(O)c(OC)c1; experiment: not read; settings: pH 7.4; 37.0 °C

O=c1c(O)c(-c2ccccc2)oc2cc(O)cc(O)c12 [85.a, Galangin]
Km (UGT1A9 [1]; pH 7.4, Km): 680 nM | Log (CLint) (Actual) (UGT1A9 [2]): 4.04 | Log (CLint) (Actual) (UGT1A9 [2]; listed as 85.b): 3.68

Cc1cc(O)c2c(c1)C(=O)c1cc(O)cc(O)c1C2=O [compound 18, Emodin]
Km (UGT1A9 [1]; pH 7.4, Km): 2870 nM | CLint (Vmax/Km) (UGT1A9 [3]; human, pH 7.4): 1020 µL/mg/min | Log (CLint) (Actual) (UGT1A9 [3]; human, pH 7.4): 3.01

Oc1cccc2ccccc12 [compound 21, Naphthol]
CLint (Vmax/Km) (UGT1A9 [3]; human, pH 7.4): 288 µL/mg/min | Log (CLint) (Actual) (UGT1A9 [3]; human, pH 7.4): 2.46 | Vmax (UGT1A9 [2]): 72.1 pmol/mg/min

O=c1cc(-c2ccccc2)oc2cc(O)c(O)c(O)c12 [compound 51, Baicalein]
Km (UGT1A9 [1]; pH 7.4, Km): 700 nM | Log (CLint) (Actual) (UGT1A9 [3]; human, pH 7.4): 3.88

COc1cc(/C=C/C(=O)O)ccc1O [compound 95, Ferulic Acid]
CLint (Vmax/Km) (UGT1A9 [3]): 0.4 µL/mg/min | Log (CLint) (Actual) (UGT1A9 [3]; human): 0.30 | Km (UGT1A9 [3]; pH 7.4): 884 µM | Vmax (UGT1A9 [2]): 372 pmol/mg/min

COc1ccc(-c2coc3cc(O)cc(O)c3c2=O)cc1 [compound 100, Biochanin A]
CLint (Vmax/Km) (UGT1A9 [3]): 335 µL/mg/min | Log (CLint) (Actual) (UGT1A9 [3]; human): 2.53 | Km (UGT1A9 [3]; pH 7.4): 1.13 µM

O=c1c(-c2ccc(O)cc2)coc2cc(O)ccc12 [compound 101, Daidzein]
CLint (Vmax/Km) (UGT1A9 [3]; human, pH 7.4): 77 µL/mg/min | Log (CLint) (Actual) (UGT1A9 [3]; human, pH 7.4): 1.89

O=C1c2ccc(O)cc2OCC1c1ccc(O)cc1 (centres unmarked) [compound 102, Dihydrodaidzein]
CLint (Vmax/Km) (UGT1A9 [3]): 8.1 µL/mg/min | Log (CLint) (Actual) (UGT1A9 [3]; human): 0.91 | Km (UGT1A9 [3]; pH 7.4): 77.7 µM

O=c1c(-c2ccc(O)cc2)coc2cc(O)cc(O)c12 [compound 105, Genistein]
Km (UGT1A9 [1]; pH 7.4): 2090 nM | CLint (Vmax/Km) (UGT1A9 [3]; human, pH 7.4): 617 µL/mg/min | Log (CLint) (Actual) (UGT1A9 [2]): 2.79

CCCCc1ccc(O)cc1 [compound 110, 4-n-Butylphenol]
Km (UGT1A9 [1]; pH 7.4, Km): 43100 nM | Log (CLint) (Actual) (UGT1A9 [3]; human, pH 7.4): 1.18

CC(C)c1ccc(O)cc1 [compound 117, 4-Isopropylphenol]
Km (UGT1A9 [1]; pH 7.4): 36400 nM | Log (CLint) (Actual) (UGT1A9 [2]): 1.78

Cc1ccc(O)cc1 [compound 119, 4-Methylphenol]
Log (CLint) (Actual) (UGT1A9 [3]; human, pH 7.4): 1.39

Oc1ccc(N=Nc2ccccc2)cc1 [compound 124, 4-Phenylazophenol]
CLint (Vmax/Km) (UGT1A9 [3]): 14 µL/mg/min | Log (CLint) (Actual) (UGT1A9 [3]; human): 1.15 | Km (UGT1A9 [3]; pH 7.4): 82.5 µM

CCC(C)c1ccc(O)cc1 (centres unmarked) [compound 127, 4-sec-Butylphenol]
Km (UGT1A9 [1]; pH 7.4, Km): 87500 nM | CLint (Vmax/Km) (UGT1A9 [3]; human, pH 7.4): 37 µL/mg/min | Log (CLint) (Actual) (UGT1A9 [2]): 1.57

CCOC(=O)c1ccc(O)cc1 [compound 130, Ethyl-4-hydroxybenzoate]
Log (CLint) (Actual) (UGT1A9 [3]; human, pH 7.4): 1.61

C=CCc1ccc(O)c(OC)c1 [compound 131, Eugenol]
Log (CLint) (Actual) (UGT1A9 [3]; human, pH 7.4): 1.60

COC(=O)c1ccc(O)cc1 [compound 132, Methyl-4-hydroxybenzoate]
Log (CLint) (Actual) (UGT1A9 [3]; human, pH 7.4): 1.73

CCCOC(=O)c1ccc(O)cc1 [compound 134, Propyl-4-hydroxybenzoate]
Log (CLint) (Actual) (UGT1A9 [3]; human, pH 7.4): 1.48

CC(C)(c1ccc(O)cc1)c1ccc(O)cc1 [compound 135, Bisphenol A]
Log (CLint) (Actual) (UGT1A9 [3]; human, pH 7.4): 1.68

CN(C)CCc1c[nH]c2cccc(O)c12 [compound 143, Psilocin]
Log (CLint) (Actual) (UGT1A9 [3]; human, pH 7.4): 0.90

CCc1c2c(nc3ccc(O)cc13)-c1cc3c(c(=O)n1C2)COC(=O)[C@]3(O)CC [compound 144, SN-38]
CLint (Vmax/Km) (UGT1A9 [3]): 3 µL/mg/min | Log (CLint) (Actual) (UGT1A9 [3]; human): 0.44

C[C@]12CC[C@@H]3c4ccc(O)cc4CC[C@H]3[C@@H]1CC[C@@H]2O [estradiol, reference compound]
glucuronide metabolite formation on incubation with UGT1A9 (non-substrate) (UGT1A9 [3]): no metabolite can be detected

B1: human UGT1A9 (Homo sapiens) (protein)
chain: T1 sequence (O60656 26-530)
Km (not read [4]): 56.2 µM | Vmax (not read [4]): 0.00124 µmol/min/mg | Vmax/Km (not read [4]): 22 µL/min/mg | Km (not read [5]): 57.8 µM | Vmax (not read [5]): 0.000225 µmol/min/mg | Vmax/Km (not read [5]): 4 µL/min/mg | Km (not read [6]): 748 µM | Vmax (not read [6]): 0.00598 µmol/min/mg | Vmax/Km (not read [6]): 8 µL/min/mg | Km (not read [7]): 101 µM | Km (not read [8]): 25 µM | Vmax (not read [8]): 0.001 µmol/min/mg | Vmax/Km (not read [8]): 40 µL/min/mg
